Columns and labels:
[1] = Luminescent data (absorption, emission, quantum yield, brightness) in solvents; type: physicochemical
Excerpt: Referring now to Table 1, there is shown luminescent data for Compounds 1 to 6.

[2] = Luminescence data for pairs of compounds absorbing at the same wavelength and emitting at different wavelengths; type: physicochemical; settings: for ε × 10^3 (M^−1 cm^−1) at 355 nm / ε × 10^3 (M^−1 cm^−1) at 405 nm / ε × 10^3 (M^−1 cm^−1) at λMax / Absorption λMax / Emission λMax: solvent not given
Excerpt: Referring now to Tables 2 to 4, there is provided luminescence data for pairs of compounds which are capable of absorbing at the same wavelength and emitting at different wavelengths.

human liver = settings: 45 min, 1 μg/ml
Procedure: All fluorophores were testing using donated human tissue which had been previously rejected for transplantation. All reagents were diluted in pre-warmed Dulbecos Modified Eagles Medium (DMEM) or CO2-independent media (both Invitrogen) to working concentrations and then perfused into pieces of liver for 45 min. Membrane and nuclear dyes were used simultaneously to visualise other cellular structures within the liver. Tissues were then imaged using multiphoton microscopy (825 nm). All fluorophores were used at 1 μg/ml (giving 0.1% of vehicle, being DMSO or THF). Testing of TpOx-2-Nap (green fluorophore) was done using DMSO as a solvent. […] was used for comparison, having been perfused through a separate piece of tissue from the same donor.

[3] = Solubility (statements in words); type: physicochemical
Huh-7 cells = settings: 1 hr, Huh-7 cells labelled with CMFDA
Excerpt: To test the relative toxicity of tetrahydrofuran (THF) for liver cells, Huh-7 cells (hepatoma cell line used for a model of hepatocytes) were labelled with CMFDA (CellTracker Green, in DMSO, Invitrogen) and then treated with half log concentrations of THF (0.1%, 0.3%, 1%, 3%) for 1 hr. Cells were then imaged live using a Zeiss primovert fluorescence microscope.

[4] = Acetonitrile (ϵr 37.5, viscosity 0.38 cP)
[5] = Ethyl acetate (ϵr 6.0, viscosity 0.45 cP)
[6] = Octan-1-ol (ϵr 10.3, viscosity 7.36 cP)

CCCCCOc1cc2c3cc(OCCCCC)c(OCCCCC)cc3c3c(cc(OCCCCC)c4oc(CCCC)nc43)c2cc1OCCCCC [Compound 1, 8-butyl-2,3,6,11,12-pentakis(pentyloxy)triphenyleno[1,2-d]oxazole]
Absorption λmax [1, 4]: 281 nm | Brightness [1, 4]: 12 ± 2 M⁻¹ cm⁻¹ | Emission λmax [1, 4]: 367 nm | pSS [1, 4]: 8300 cm^−1 | Φ [1, 4]: 0.20 ± 0.02 | Absorption λmax [1, 5]: 281 nm | Brightness [1, 5]: 29 ± 5 M⁻¹ cm⁻¹ | Emission λmax [1, 5]: 367 nm | pSS [1, 5]: 8300 cm^−1 | Φ [1, 5]: 0.18 ± 0.01 | Absorption λmax [1, 6]: 281 nm | Brightness [1, 6]: 36 ± 7 M⁻¹ cm⁻¹ | Emission λmax [1, 6]: 367 nm | pSS [1, 6]: 8300 cm^−1 | Φ [1, 6]: 0.30 ± 0.03

CCCCCOc1cc2c3cc(OCCCCC)c(OCCCCC)cc3c3c(cc(OCCCCC)c4oc(-c5ccccc5)nc43)c2cc1OCCCCC [Compound 2, 2,3,6,11,12-pentakis(pentyloxy)-8-phenyltriphenyleno[1,2-d]oxazole]
Absorption λmax [1, 4]: 270 nm | Brightness [1, 4]: 38 ± 4 M⁻¹ cm⁻¹ | Emission λmax [1, 4]: 492 nm | pSS [1, 4]: 16700 cm^−1 | Φ [1, 4]: 0.46 ± 0.04 | Absorption λmax [1, 5]: 270 nm | Brightness [1, 5]: 51 ± 5 M⁻¹ cm⁻¹ | Emission λmax [1, 5]: 467 nm | pSS [1, 5]: 15600 cm^−1 | Φ [1, 5]: 0.46 ± 0.04 | Absorption λmax [1, 6]: 271 nm | Brightness [1, 6]: 64 ± 6 M⁻¹ cm⁻¹ | Emission λmax [1, 6]: 473 nm | pSS [1, 6]: 15800 cm^−1 | Φ [1, 6]: 0.61 ± 0.06

CCCCCOc1cc2c3cc(OCCCCC)c(OCCCCC)cc3c3c(cc(OCCCCC)c4oc(-c5ccc6ccccc6c5)nc43)c2cc1OCCCCC [Compound 3, 8-(naphthalen-2-yl)-2,3,6,11,12-pentakis(pentyloxy)triphenyleno[1,2-d]oxazole]
QY [2]: 0.55 | pSS (cm^−1) [2]: 16500 cm^−1 | pSS (nm) [2]: 222 nm | Absorption % Abs at 355 nm [2]: 17% | Absorption % Abs at 405 nm [2]: 7% | ε × 10^3 (M^−1 cm^−1) at 355 nm [2]: 29 × 10^3 M^−1 cm^−1 | ε × 10^3 (M^−1 cm^−1) at 405 nm [2]: 13 × 10^3 M^−1 cm^−1 | ε × 10^3 (M^−1 cm^−1) at λMax [2]: 164 × 10^3 M^−1 cm^−1 | Absorption λMax [2]: 272 nm | Emission λMax [2]: 494 nm | Uptake by hepatocytes (human liver): Diffuse green fluorescence (12) was observed within the cytoplasm of the hepatocytes | Solubility with DMSO as solvent ([3]; DMSO as a solvent, diluted in medium to 1 μg/ml): limited solubility | Absorption λmax [1, 4]: 273 nm | Brightness [1, 4]: 44 ± 4 M⁻¹ cm⁻¹ | Emission λmax [1, 4]: 524 nm | pSS [1, 4]: 17600 cm^−1 | Φ [1, 4]: 0.51 ± 0.05 | Absorption λmax [1, 5]: 272 nm | Brightness [1, 5]: 92 ± 9 M⁻¹ cm⁻¹ | Emission λmax [1, 5]: 494 nm | pSS [1, 5]: 16500 cm^−1 | Φ [1, 5]: 0.55 ± 0.05 | Absorption λmax [1, 6]: 272 nm | Brightness [1, 6]: 91 ± 9 M⁻¹ cm⁻¹ | Emission λmax [1, 6]: 497 nm | pSS [1, 6]: 16600 cm^−1 | Φ [1, 6]: 0.71 ± 0.07

CCCCCOc1cc2c3cc(OCCCCC)c(OCCCCC)cc3c3c(cc(OCCCCC)c4oc(-c5cccc6ccccc56)nc43)c2cc1OCCCCC [Compound 4, 8-(naphthalen-1-yl)-2,3,6,11,12-pentakis(pentyloxy)triphenyleno[1,2-d]oxazole]
Absorption λmax [1, 4]: 275 nm | Brightness [1, 4]: 30 ± 3 M⁻¹ cm⁻¹ | Emission λmax [1, 4]: 543 nm | pSS [1, 4]: 18000 cm^−1 | Φ [1, 4]: 0.36 ± 0.04 | Absorption λmax [1, 5]: 275 nm | Brightness [1, 5]: 56 ± 5 M⁻¹ cm⁻¹ | Emission λmax [1, 5]: 510 nm | pSS [1, 5]: 16800 cm^−1 | Φ [1, 5]: 0.48 ± 0.04 | Absorption λmax [1, 6]: 275 nm | Brightness [1, 6]: 67 ± 7 M⁻¹ cm⁻¹ | Emission λmax [1, 6]: 515 nm | pSS [1, 6]: 17000 cm^−1 | Φ [1, 6]: 0.55 ± 0.05

CCCCCOc1cc2c3cc(OCCCCC)c(OCCCCC)cc3c3c(cc(OCCCCC)c4oc(-c5ccc6cc7ccccc7cc6c5)nc43)c2cc1OCCCCC [Compound 5, 8-(anthracen-2-yl)-2,3,6,11,12-pentakis(pentyloxy)triphenyleno[1,2-d]oxazole]
Absorption λmax [1, 4]: 270 nm | Emission λmax [1, 4]: 592 nm | pSS [1, 4]: 20200 cm^−1 | Φ [1, 4]: 0.21 ± 0.02 | Absorption λmax [1, 5]: 272 nm | Brightness [1, 5]: 53 ± 5 M⁻¹ cm⁻¹ | Emission λmax [1, 5]: 536 nm | pSS [1, 5]: 18100 cm^−1 | Φ [1, 5]: 0.51 ± 0.04 | Absorption λmax [1, 6]: 270 nm | Brightness [1, 6]: 50 ± 5 M⁻¹ cm⁻¹ | Emission λmax [1, 6]: 526 nm | pSS [1, 6]: 18000 cm^−1 | Φ [1, 6]: 0.56 ± 0.05

CCCCCOc1cc2c3cc(OCCCCC)c(OCCCCC)cc3c3c(cc(OCCCCC)c4oc(-c5c6ccccc6cc6ccccc56)nc43)c2cc1OCCCCC [Compound 6, 8-(anthracen-9-yl)-2,3,6,11,12-pentakis(pentyloxy)triphenyleno[1,2-d]oxazole]
Absorption λmax [1, 4]: 253 nm | Emission λmax [1, 4]: 630 nm | pSS [1, 4]: 23650 cm^−1 | Absorption λmax [1, 5]: 253 nm | Emission λmax [1, 5]: 594 nm | pSS [1, 5]: 22700 cm^−1 | Absorption λmax [1, 6]: 255 nm | Emission λmax [1, 6]: 384 nm | pSS [1, 6]: 13200 cm^−1

CCCCCOc1cc2c3cc(OCCCCC)c(OCCCCC)cc3c3c(cc(OCCCCC)c4oc(-c5ccc(C#N)cc5)nc43)c2cc1OCCCCC [Compound 12, 4-(2,3,6,11,12-pentakis(pentyloxy)triphenyleno[1,2-d]oxazol-8-yl)benzonitrile]
QY [2]: 0.32 | pSS (cm^−1) [2]: 18800 cm^−1 | pSS (nm) [2]: 286 nm | Absorption % Abs at 355 nm [2]: 12% | Absorption % Abs at 405 nm [2]: 14% | ε × 10^3 (M^−1 cm^−1) at 355 nm [2]: 13 × 10^3 M^−1 cm^−1 | ε × 10^3 (M^−1 cm^−1) at 405 nm [2]: 14 × 10^3 M^−1 cm^−1 | ε × 10^3 (M^−1 cm^−1) at λMax [2]: 103 × 10^3 M^−1 cm^−1 | Absorption λMax [2]: 272 nm | Emission λMax [2]: 558 nm

CCCCCOc1cc2c3cc(OCCCCC)c(OCCCCC)cc3c3c(cc(OCCCCC)c4oc(-c5ccc(N(C)C)cc5)nc43)c2cc1OCCCCC [Compound 22, N,N-dimethyl-4-(2,3,6,11,12-pentakis(pentyloxy)triphenyleno[1,2-d]oxazol-8-yl)aniline]
QY [2]: 0.70 | pSS (cm^−1) [2]: 13150 cm^−1 | pSS (nm) [2]: 150 nm | Absorption % Abs at 355 nm [2]: 54% | Absorption % Abs at 405 nm [2]: 2% | ε × 10^3 (M^−1 cm^−1) at 355 nm [2]: 39 × 10^3 M^−1 cm^−1 | ε × 10^3 (M^−1 cm^−1) at 405 nm [2]: 1.5 × 10^3 M^−1 cm^−1 | ε × 10^3 (M^−1 cm^−1) at λMax [2]: 72 × 10^3 M^−1 cm^−1 | Absorption λMax [2]: 271 nm | Emission λMax [2]: 421 nm

CCCCCOc1cc2c(cc1OCCOCCOCCOC)c1cc(OCCOCCOCCOC)c(OCCOCCOCCOC)cc1c1cc(OCCOCCOCCOC)c3oc(C)nc3c21 [Compound 32, 2,3,6,12-tetrakis(2-(2-(2-methoxyethoxy)ethoxy)ethoxy)-8-methyl-11-(pentyloxy)triphenyleno[1,2-d]oxazole]
Water solubility ([3]; water): water soluble

CCCCCOc1cc2c3cc(OCCCCC)c(OCCCCC)cc3c3c(cc(OCCCCC)c4oc(-c5ccc(OC)cc5)nc43)c2cc1OCCCCC [Compound 45, 8-(4-methoxyphenyl)-2,3,6,11,12-pentakis(pentyloxy)triphenyleno[1,2-d]oxazole]
QY [2]: 0.40 | pSS (cm^−1) [2]: 14000 cm^−1 | pSS (nm) [2]: 174 nm | Absorption % Abs at 355 nm [2]: 22% | Absorption % Abs at 405 nm [2]: 0% | ε × 10^3 (M^−1 cm^−1) at 355 nm [2]: 21 × 10^3 M^−1 cm^−1 | ε × 10^3 (M^−1 cm^−1) at 405 nm [2]: 0 × 10^3 M^−1 cm^−1 | ε × 10^3 (M^−1 cm^−1) at λMax [2]: 97 × 10^3 M^−1 cm^−1 | Absorption λMax [2]: 270 nm | Emission λMax [2]: 444 nm

C1CCOC1 [THF, tetrahydrofuran]
Toxicity for liver cells (cell culture compared to the reference) (Huh-7 cells; 0.1% and 0.3% THF): no differences in the cell culture compared to the reference | Toxicity for liver cells (dead cells) (Huh-7 cells; 1% and 3% THF): increasing number of dead cells

— US20220357332A1, “TRIPHENYLENE DERIVATIVES FOR USE IN IMAGING BIOLOGICAL TISSUE OR FLUID” (CHROMATWIST LIMITED, priority 2019, published 2022)
